Results from US6800612B2, “S-nitrosothiols as agents for the treatment of circulatory dysfunctions” (Lacer, S.A., priority 2000, dated 2004).
Where two headings read alike, the source gives them in different places.

Legend:
[1] = test system: human washed platelet preparations; assay: Test in vitro of the blockage of platelet aggregation inhibition by ODQ; type: cell-based; details: for inhibition at 0.1 µM / inhibition at 0.3 µM / inhibition at 1 µM: Homo sapiens, Platelet; for inhibition at 1 µM: 1 μM compound; for blocking of the inhibiting effect by ODQ: IC50 dose of the compounds
Procedure: Test In Vitro of the Blockage of Platelet Aggregation Inhibition. The method used in the test is substantially the same as described in the references cited in example 8, completed with the reference: Moro MA, et al. Pr Nat Acad Sc USA. 1996 ;93:1480-5. The ODQ is tested in vitro to block the inhibition of platelet aggregation reached by the obtained products in human washed platelet preparations. […] The obtained results are compared to those from the GSNO (reference product) and with the values in absence of ODQ.

platelets = assay: Tests in vitro of the inhibition of the aggregation of the platelets (collagen 1 μg/mL); type: cell-based, human; details: for IC50: aggregation obtained with sub-maximal collagen concentration (1 μg/mL), read-out: IC50 (average ± SD), inhibition of the aggregation of the platelets; for inhibiting activity on platelets aggregation compared to the reference compound (GSNO): in words
Description: Tests In Vitro of the Inhibition of the Aggregation of the Platelets. The method used in the assays is substantially the same as described in following references: Loscalzo J, et al. En: Methods in nitric oxide research (Feelisch M, Stamler JS, eds.) John Wiley & Sons, Chichester, England, pp 583-591. Radomski MW, et al. Br J Pharmacol 1987;92:181-187. […], et al. Br J Pharmacol 1994;112:1071-1076. […] The obtained results are compared to those from the S-nitrosoglutathione (GSNO), which is used as reference product.

arterial ring = assay: Tests for in vitro vasodilatation (arterial rings contracted with 1 μM Norepinephrine); type: cell-based; details: for EC50: vasodilatation of 50% of arterial ring previously contracted with 1 μM Norepinephrine, 6 to 9 rings, read-out: CE50 (average ± SD), vasodilatation
Procedure: Tests for In Vitro Vasodilatation. The method used in the assays is substantially the same as described in the following references: Furchgot, R. F. “Methods in nitric oxide research”. Feelisch & Stamler eds. John Wiley &Sons, Chichester, England, pp 567-581. Trongvanichnam, K, et al. Jpn J. […]., et al. Eur. J. Pharmacol. 1994; 258:47-55. The compounds are tested at 5 different concentrations, at a concentration range from 0,001 y 10 mM, using from 6 to 9 arterial rings for each compound. The obtained results are compared to those from the S-nitrosoglutathione (GSNO), which is used as reference product.

human washed platelets = assay: Tests in vitro of the increase of the intra-platelet levels of GMPc; type: cell-based; details: for GMPc intra-platelet level: human washed platelets
Description: Tests In Vitro of the Increase of the Intra-platelet Levels of GMPc. […] The method used in the test is substantially the same as described in the references cited in example 8. […] The obtained results are compared to those from the GSNO (reference product) and with the basal values.

Molecule: N[C@@H](CCC(=O)N[C@@H](CSN=O)C(=O)NCC(=O)O)C(=O)O [GSNO, S-nitrosoglutathione, reference compound]
- inhibition at 0.1 µM ([1]; 0.1 μM compound, ODQ 1 μM, read-out: % inhibition with ODQ): 0%
- inhibition at 0.1 µM ([1]; 0.1 μM compound, inhibition of the maximum aggregation, read-out: % inhibition without ODQ): 34.2 ± 25%
- inhibition at 0.3 µM ([1]; 0.3 μM compound, ODQ 1 μM, read-out: % inhibition with ODQ): 3.3 ± 3%
- inhibition at 0.3 µM ([1]; 0.3 μM compound, inhibition of the maximum aggregation, read-out: % inhibition without ODQ): 79.3 ± 17%
- inhibition at 1 µM ([1]; ODQ 1 μM, read-out: % inhibition with ODQ): 32.6 ± 0.9%
- inhibition at 1 µM ([1]; inhibition of the maximum aggregation, read-out: % inhibition without ODQ): 92.65 ± 0.9%
- blocking of the inhibiting effect by ODQ ([1]; ODQ 1 μM, in words): capable of blocking the inhibiting effect
- IC50 (platelets; Homo sapiens, Platelet): 480 ± 190 nM
- EC50 (arterial ring): 1560 ± 550 nM
- GMPc intra-platelet level (human washed platelets; 0.1 μM compound): 1 ± 0.5 pmol/10^9 platelets
- GMPc intra-platelet level (human washed platelets; 0.3 μM compound): 6.6 ± 0.6 pmol/10^9 platelets
- GMPc intra-platelet level (human washed platelets; 1 μM compound): 24 ± 0.5 pmol/10^9 platelets
- GMPc intra-platelet level (human washed platelets; 3 μM compound): 27.6 ± 6.0 pmol/10^9 platelets

Molecule: CC(=O)NC(C(=O)O)C1(SN=O)CCOCC1 (stereo not drawn) [Product obtained in example 1, N-acetyl-2-amino-2-[4-(4-S-Nitro-somercaptotetrahydropyran) ] Acetic Acid]
- IC50 (platelets): 70 ± 20 nM
- inhibiting activity on platelets aggregation compared to the reference compound (GSNO) (platelets): highly superior to that of the reference product
- EC50 (arterial ring): 375 ± 50 nM

Molecule: CC(=O)NC(C(=O)O)C1(SN=O)CCN(C)CC1 (stereo not drawn) [Product obtained in example 2, N-acetyl-2-amino-2-[4-(4-S-nitro-somercapto-1-methylpiperidin)] Acetic Acid]
- IC50 (platelets): 190 ± 20 nM
- vasodilating activity compared to the reference compound (GSNO) (arterial ring; in words): highly superior to that of the reference product
- EC50 (arterial ring): 24 ± 3 nM

Molecule: CC(=O)NC(C(=O)O)C(Cc1ccccc1)(Cc1ccccc1)SN=O (stereo not drawn) [Product obtained in example 3, N-acetyl-2-amino-3-benzyl-3-S-ni-trosomercapto-4-phenyl-butanoic Acid]
- IC50 (platelets): 240 ± 27 nM
- EC50 (arterial ring): 630 ± 210 nM

Molecule: N[C@@H](CCC(=O)NC(C(=O)NCC(=O)O)C(Cc1ccccc1)(Cc1ccccc1)SN=O)C(=O)O (stereo partly drawn) [Product obtained in example 6, N[N-γ-L-glutamyl-2-amino-3-benzyl-3-(S-nitrosomercapto)-4-phenylbutanoyl] glycine]
- IC50 (platelets): 350 ± 110 nM

Molecule: N[N-γ-L-glutamyl-2-amino-2-(4-(4-S-nitrosomercapto-1-methyl-piperidin))acetyl ] glycine [Product obtained in example 5]
- % inhibition with ODQ ([1]; 0.003 μM compound, ODQ 1 μM): 0%
- % inhibition without ODQ ([1]; 0.003 μM compound, inhibition of the maximum aggregation): 0%
- % inhibition with ODQ ([1]; 0.01 μM compound, ODQ 1 μM): 0%
- % inhibition without ODQ ([1]; 0.01 μM compound, inhibition of the maximum aggregation): 17%
- % inhibition with ODQ ([1]; 0.03 μM compound, ODQ 1 μM): 0%
- % inhibition without ODQ ([1]; 0.03 μM compound, inhibition of the maximum aggregation): 83 ± 1.4%
- % inhibition with ODQ ([1]; 0.1 μM compound, ODQ 1 μM): 0%
- % inhibition without ODQ ([1]; 0.1 μM compound, inhibition of the maximum aggregation): 96%
- % inhibition with ODQ ([1]; 0.3 μM compound, ODQ 1 μM): 0%
- % inhibition without ODQ ([1]; 0.3 μM compound, inhibition of the maximum aggregation): 96%
- blocking of the inhibiting effect by ODQ ([1]; ODQ 1 μM, in words): capable of blocking the inhibiting effect
- blocking of the inhibition of aggregation by ODQ compared to the reference product ([1]; ODQ 1 μM, at higher doses to that of the IC50, in words): better blocked
- IC50 (platelets): 47 ± 11 nM
- inhibiting activity on platelets aggregation compared to the reference compound (GSNO) (platelets): highly superior to that of the reference product
- EC50 (arterial ring): 1890 ± 820 nM
- GMPc intra-platelet level (human washed platelets; 0.03 μM compound): 1.60 ± 0.5 pmol/10^9 platelets
- GMPc intra-platelet level (human washed platelets; 0.1 μM compound): 1.50 ± 0.4 pmol/10^9 platelets
- GMPc intra-platelet level (human washed platelets; 0.3 μM compound): 6.50 ± 0.5 pmol/10^9 platelets
- GMPc intra-platelet level (human washed platelets; 1 μM compound): 21.1 ± 0.5 pmol/10^9 platelets
- increase of intra-platelet levels of GMPc compared to GSNO (human washed platelets; in words): in a similar manner to that of the GSNO reference
- levels of GMPc at concentrations close to the IC50, compared to GSNO (human washed platelets; values close to the IC50, in words): lower as that of the GSNO

Molecule: N[N-γ-L-glutamyl-2-amino-2-(4-(4—S—nitrosomercapto)tetrahydropyran)) acetyl]glycine [Product obtained in example 4]
- IC50 (platelets): 200 ± 120 nM
- EC50 (arterial ring): 1730 ± 270 nM
